Data taken from patent publication US6737383B1, “Herbicidal oxadiazolidines” (priority 1999, dated 2004).

What was measured:
[1] = test system: velvetleaf; experiment: Test B pre/postemergence velvetleaf; assay type: in vivo, Abutilon theophrasti
Method in brief: (§1)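 Test chemicals in a non-phytotoxic solvent mixture with surfactant were sprayed preemergence onto planted seeds and postemergence onto plants 2 to 18 cm tall (1- to 4-leaf stage). After twelve to sixteen days in a greenhouse, injury was visually rated against untreated controls from 0 (no effect) to 10 (complete control).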

[2] = test system: bamyardgrass; experiment: Test B flood test barnyardgrass; assay type: in vivo, Echinochloa crus-galli
Method in brief: (§2)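 Read-out is a visual response score from 0 (no effect) to 10 (complete control), assigned by comparison with untreated controls. Treatment was applied at the 2-leaf stage, and plants stayed in the greenhouse for twelve to sixteen days before scoring.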

[3] = test system: pigweed; experiment: Test B pre/postemergence pigweed; assay type: in vivo, Amaranthus retroflexus
Method in brief: as §1

[4] = test system: crabgrass; experiment: Test B pre/postemergence crabgrass; assay type: in vivo, Digitaria sanguinalis
Method in brief: as §1

[5] = test system: corn; experiment: Test B pre/postemergence corn; assay type: in vivo, Zea mays
Method in brief: as §1

[6] = test system: rape; experiment: Test B pre/postemergence rape; assay type: in vivo, Brassica napus
Method in brief: as §1

[7] = test system: rice; experiment: Test B flood test rice; assay type: in vivo, Oryza sativa
Method in brief: as §2

[8] = test system: surinam grass; experiment: Test B pre/postemergence surinam grass; assay type: in vivo, Brachiaria decumbens
Method in brief: as §1

[9] = test system: smallflower flatsedge; experiment: Test B flood test smallflower flatsedge; assay type: in vivo, Cyperus difformis
Method in brief: as §2

[10] = test system: cocklebur; experiment: Test B pre/postemergence cocklebur; assay type: in vivo, Xanthium strumarium
Method in brief: as §1

[11] = test system: duck salad; experiment: Test B flood test duck salad; assay type: in vivo, Heteranthera limosa
Method in brief: as §2

[12] = test system: bedstraw; experiment: Test B pre/postemergence bedstraw; assay type: in vivo, Galium aparine
Method in brief: as §1

[13] = test system: sugar beet; experiment: Test B pre/postemergence sugar beet; assay type: in vivo, Beta vulgaris
Method in brief: as §1

[14] = test system: wild oat; experiment: Test B pre/postemergence wild oat; assay type: in vivo, Avena fatua
Method in brief: as §1

[15] = test system: morningglory; experiment: Test B pre/postemergence morningglory; assay type: in vivo, Ipomoea hederacea
Method in brief: as §1

[16] = test system: soybean; experiment: Test B pre/postemergence soybean; assay type: in vivo, Glycine max
Method in brief: as §1

[17] = Preemergence, Rate 62 g/ha, scale of 0 to 10 where 0 is no effect and 10 is complete control
[18] = Preemergence, Rate 250 g/ha, scale of 0 to 10 where 0 is no effect and 10 is complete control
[19] = Preemergence, Rate 500 g/ha, scale of 0 to 10 where 0 is no effect and 10 is complete control
[20] = Rate 125 g/ha, Postemergence, scale of 0 to 10 where 0 is no effect and 10 is complete control
[21] = Rate 125 g/ha, Preemergence, scale of 0 to 10 where 0 is no effect and 10 is complete control
[22] = Rate 250 g/ha, Postemergence, scale of 0 to 10 where 0 is no effect and 10 is complete control
[23] = Rate 500 g/ha, Postemergence, scale 0 to 10, 0 no effect, 10 complete control
[24] = Rate 62 g/ha, headed Pre-emergence (flood test species), scale 0 to 10 (0 no effect, 10 complete control)
[25] = Rate 125 g/ha, Pre-emergence, flood test species, scale 0 to 10 where 0 is no effect and 10 is complete control
[26] = Rate 250 g/ha, Pre-emergence, flood-test species, scale 0 to 10, 0 is no effect, 10 is complete control
[27] = Rate 500 g/ha, Pre-emergence, flood test species, scale 0 to 10 (0 no effect, 10 complete control)
[28] = Rate 62 g/ha, Postemergence, scale of 0 to 10 where 0 is no effect and 10 is complete control

CC(C)N(C(=O)n1oc(=O)n(-c2ccsc2)c1=O)c1ccc(F)cc1 [Compound 272]
1: Plant response rating, Cocklebur [10, 22] | Cocklebur plant response rating [10, 23] | Morningglory plant response rating [15, 20] | Plant response rating, Morningglory [15, 22] | Soybean plant response rating [16, 20] | Plant response rating, Soybean [16, 22] | Soybean plant response rating [16, 23]
0: Velvetleaf plant response rating [1, 17] | Velvetleaf plant response rating [1, 18] | Plant response rating, Velvetleaf [1, 19] | Velvetleaf plant response rating [1, 20] | Velvetleaf plant response rating [1, 21] | Plant response rating, Velvetleaf [1, 22] | Velvetleaf plant response rating [1, 23] | Barnyardgrass plant response rating [2, 24] | Barnyardgrass plant response rating [2, 25] | Barnyardgrass plant response rating [2, 26] | Barnyardgrass plant response rating [2, 27] | Redroot pigweed plant response rating [3, 17] | Redroot pigweed plant response rating [3, 18] | Redroot pigweed plant response rating [3, 20] | Redroot pigweed plant response rating [3, 21] | Crabgrass plant response rating [4, 17] | Crabgrass plant response rating [4, 18] | Crabgrass plant response rating [4, 20] | Crabgrass plant response rating [4, 21] | Plant response rating, Crabgrass [4, 22] | Crabgrass plant response rating [4, 23] | Corn plant response rating [5, 17] | Corn plant response rating [5, 18] | Plant response rating, Corn [5, 19] | Corn plant response rating [5, 28] | Corn plant response rating [5, 20] | Corn plant response rating [5, 21] | Plant response rating, Corn [5, 22] | Corn plant response rating [5, 23] | Rape plant response rating [6, 17] | Rape plant response rating [6, 18] | Plant response rating, Rape [6, 19] | Rape plant response rating [6, 20] | Rape plant response rating [6, 21] | Plant response rating, Rape [6, 22] | Rape plant response rating [6, 23] | Rice plant response rating [7, 24] | Rice plant response rating [7, 25] | Rice plant response rating [7, 26] | Rice plant response rating [7, 27] | B. signalgrass plant response rating [8, 17] | B. signalgrass plant response rating [8, 18] | Plant response rating, B. signalgrass [8, 19] | B. signalgrass plant response rating [8, 28] | B. signalgrass plant response rating [8, 20] | B. signalgrass plant response rating [8, 21] | Plant response rating, B. signalgrass [8, 22] | B. signalgrass plant response rating [8, 23] | S. Flatsedge plant response rating [9, 24] | S. Flatsedge plant response rating [9, 25] | S. Flatsedge plant response rating [9, 26] | S. Flatsedge plant response rating [9, 27] | Cocklebur plant response rating [10, 17] | Cocklebur plant response rating [10, 18] | Plant response rating, Cocklebur [10, 19] | Cocklebur plant response rating [10, 28] | Cocklebur plant response rating [10, 20] | Cocklebur plant response rating [10, 21] | Ducksalad plant response rating [11, 24] | Ducksalad plant response rating [11, 25] | Ducksalad plant response rating [11, 26] | Ducksalad plant response rating [11, 27] | Bedstraw plant response rating [12, 17] | Bedstraw plant response rating [12, 18] | Bedstraw plant response rating [12, 28] | Bedstraw plant response rating [12, 20] | Bedstraw plant response rating [12, 21] | Plant response rating, Bedstraw [12, 22] | Sugarbeets plant response rating [13, 17] | Sugarbeets plant response rating [13, 18] | Plant response rating, Sugarbeets [13, 19] | Sugarbeets plant response rating [13, 20] | Sugarbeets plant response rating [13, 21] | Plant response rating, Sugarbeets [13, 22] | Sugarbeets plant response rating [13, 23] | Wild oats plant response rating [14, 17] | Wild oats plant response rating [14, 18] | Wild oats plant response rating [14, 20] | Plant response rating, Wild oats [14, 22] | Wild oats plant response rating [14, 23] | Morningglory plant response rating [15, 17] | Morningglory plant response rating [15, 18] | Plant response rating, Morningglory [15, 19] | Morningglory plant response rating [15, 21] | Soybean plant response rating [16, 17] | Soybean plant response rating [16, 18] | Plant response rating, Soybean [16, 19] | Soybean plant response rating [16, 21]
4: Redroot pigweed plant response rating [3, 23] | Bedstraw plant response rating [12, 23]
3: Plant response rating, Redroot pigweed [3, 19] | Plant response rating, Bedstraw [12, 19]
7: Morningglory plant response rating [15, 23]
2: Plant response rating, Redroot pigweed [3, 22] | Plant response rating, Crabgrass [4, 19] | Plant response rating, Wild oats [14, 19]
